Measurements: patent US7297790B2, “Anhydrous mirtazapine crystals and process for preparing the same” (Sumitomo Chemical Company, Limited, priority 1999, dated 2007)

Assay: Hygroscopic degree of crystals stored at constant temperature and humidity (petri dish, weight gain)
Format: physicochemical
Details: 75% relative humidity, chamber temperature 25° C., after 500 hours; compared with Comparative Example 3
Protocol: Next, the mirtazapine crystals obtained in Example 7 and Comparative Example 3 were placed on a petri dish, and the petri dish was placed in a constant temperature and humidity of 75% relative humidity and a chamber temperature of 25° C., and the change in the hygroscopic degree of the crystals was evaluated. Incidentally, the hygroscopic degree is calculated by the following equation: [Hygroscopic Degree (% by weight)]=[(Weight (g) of Crystals After Treatment)−(Weight (g) of Crystals Before Treatment)]÷[Weight (g) of Crystals Before Treatment]×100

SMILES: CN1CCN2c3ncccc3Cc3ccccc3C2C1 (stereo not shown) [Example 7, anhydrous mirtazapine]
- hygroscopic degree with the passage of time (FIG. 2), in words: very low
